Assay results from ChEMBL document CHEMBL6182888, “Design, synthesis, and biological activity study of 6,7-dimethoxy-1,2,3,4-tetrahydroisoquinoline derivatives against multidrug resistance in Eca109/VCR cells” (Eur J Med Chem, 2025).

Tested on: Eca-109/VCR
Assay: Cytotoxicity against human Eca-109/VCR cells assessed as reduction in cell viability at 5.0 uM incubated for 48 hrs by CCK-8 assay relative to control
Type: functional
Details: not given

In order of falling “Cell viability (% of control)” value:
1. COc1cc2c(cc1OC)C(Cc1ccc(OCCC(C)C)c(OC)c1)N(C)CC2 (stereo not given)  105.5%
2. COc1cc2c(cc1OC)C(Cc1ccc(OC)c(OCC(=O)OC(C)(C)C)c1)N(C)CC2 (stereo not given)  104.3%
3. COc1cc2c(cc1OC)C(Cc1ccc(OCC3CC3)c(OC)c1)N(C)CC2 (stereo not given)  104.2%
4. C=CCCCCOc1ccc(CC2c3cc(OC)c(OC)cc3CCN2C)cc1OC (stereo not given)  103.4%
5. COc1cc2c(cc1OC)C(Cc1ccc(OCCCc3ccccc3)c(OC)c1)N(C)CC2 (stereo not given)  103.3%
6. COc1cc2c(cc1OC)C(Cc1ccc(OC)c(OCC3CCC3)c1)N(C)CC2 (stereo not given)  102.7%
7. COc1cc2c(cc1OC)C(Cc1ccc(OC)c(OS(=O)(=O)c3ccccc3)c1)N(C)CC2 (stereo not given)  102.6%
8. COC(=O)c1sccc1S(=O)(=O)Oc1ccc(CC2c3cc(OC)c(OC)cc3CCN2C)cc1OC (stereo not given)  101.9%
9. COc1cc2c(cc1OC)C(Cc1ccc(OC)c(OS(=O)(=O)Cc3ccccc3)c1)N(C)CC2 (stereo not given)  101.5%
10. COc1cc2c(cc1OC)C(Cc1ccc(OC)c(OS(=O)(=O)c3ccc([N+](=O)[O-])cc3)c1)N(C)CC2 (stereo not given)  101.5%
11. COc1cc2c(cc1OC)C(Cc1ccc(OCc3ccccc3)c(OC)c1)N(C)CC2 (stereo not given)  101.4%
12. COc1cc2c(cc1OC)C(Cc1ccc(OC)c(OS(=O)(=O)c3ccc(C(F)(F)F)cc3)c1)N(C)CC2 (stereo not given)  100.5%
13. COc1cc2c(cc1OC)C(Cc1ccc(OS(=O)(=O)c3ccc(C#N)cc3)c(OC)c1)N(C)CC2 (stereo not given)  99.9%
14. COc1ccc(CCN(C)CCCC(C#N)(c2ccc(OC)c(OC)c2)C(C)C)cc1OC (stereo not given) [VERAPAMIL]  98.9%
15. C=CCCCCOc1cc(CC2c3cc(OC)c(OC)cc3CCN2C)ccc1OC (stereo not given)  98.2%
16. COc1cc2c(cc1OC)C(Cc1ccc(OS(=O)(=O)c3ccccc3F)c(OC)c1)N(C)CC2 (stereo not given)  98.2%
17. COc1cc2c(cc1OC)C(Cc1ccc(OC)c(OCCCc3ccccc3)c1)N(C)CC2 (stereo not given)  96.9%
18. COc1cc2c(cc1OC)C(Cc1ccc(OS(=O)(=O)c3ccc(C(F)(F)F)cc3)c(OC)c1)N(C)CC2 (stereo not given)  90.4%
19. COc1cc2c(cc1OC)C(Cc1ccc(OCC3CCCCC3)c(OC)c1)N(C)CC2 (stereo not given)  87.7%
20. COc1cc2c(cc1OC)C(Cc1ccc(OS(=O)(=O)c3ccc4ccccc4c3)c(OC)c1)N(C)CC2 (stereo not given)  84.7%
21. COc1cc2c(cc1OC)C(Cc1ccc(OC)c(OCc3ccc(Cl)cc3Cl)c1)N(C)CC2 (stereo not given)  55.4%

Tested on: not listed separately
Assay: Reversal fold, ratio of vincristine IC50 to vincristine IC50 in presence of test compound for reversal of drug resistance in human Eca-109/VCR cells at 5 uM incubated for 48 hrs by CCK-8 assay
Type: functional
Details: not given

In order of rising “Ratio IC50” value:
1. COc1cc2c(cc1OC)C(Cc1ccc(OCC3CC3)c(OC)c1)N(C)CC2 (stereo not given)  1.5
2. C=CCCCCOc1ccc(CC2c3cc(OC)c(OC)cc3CCN2C)cc1OC (stereo not given)  1.9
3. COc1cc2c(cc1OC)C(Cc1ccc(OC)c(OCC(=O)OC(C)(C)C)c1)N(C)CC2 (stereo not given)  3.6
4. C=CCCCCOc1cc(CC2c3cc(OC)c(OC)cc3CCN2C)ccc1OC (stereo not given)  15.2
5. COc1cc2c(cc1OC)C(Cc1ccc(OC)c(OS(=O)(=O)c3ccccc3)c1)N(C)CC2 (stereo not given)  24
6. COc1cc2c(cc1OC)C(Cc1ccc(OCc3ccccc3)c(OC)c1)N(C)CC2 (stereo not given)  80.3
7. COc1cc2c(cc1OC)C(Cc1ccc(OC)c(OCC3CCC3)c1)N(C)CC2 (stereo not given)  122.6
8. COc1cc2c(cc1OC)C(Cc1ccc(OC)c(OCCCc3ccccc3)c1)N(C)CC2 (stereo not given)  124.1
9. COc1cc2c(cc1OC)C(Cc1ccc(OC)c(OS(=O)(=O)c3ccc([N+](=O)[O-])cc3)c1)N(C)CC2 (stereo not given)  141.5
10. COc1cc2c(cc1OC)C(Cc1ccc(OCCCc3ccccc3)c(OC)c1)N(C)CC2 (stereo not given)  162.4
11. COc1cc2c(cc1OC)C(Cc1ccc(OS(=O)(=O)c3ccc(C#N)cc3)c(OC)c1)N(C)CC2 (stereo not given)  168.5
12. COc1cc2c(cc1OC)C(Cc1ccc(OC)c(OS(=O)(=O)Cc3ccccc3)c1)N(C)CC2 (stereo not given)  180
13. COC(=O)c1sccc1S(=O)(=O)Oc1ccc(CC2c3cc(OC)c(OC)cc3CCN2C)cc1OC (stereo not given)  182.2
14. COc1cc2c(cc1OC)C(Cc1ccc(OCCC(C)C)c(OC)c1)N(C)CC2 (stereo not given)  227.1
15. COc1cc2c(cc1OC)C(Cc1ccc(OS(=O)(=O)c3ccccc3F)c(OC)c1)N(C)CC2 (stereo not given)  274.3
16. COc1cc2c(cc1OC)C(Cc1ccc(OCC3CCCCC3)c(OC)c1)N(C)CC2 (stereo not given)  280
17. COc1cc2c(cc1OC)C(Cc1ccc(OS(=O)(=O)c3ccc(C(F)(F)F)cc3)c(OC)c1)N(C)CC2 (stereo not given)  307.4
18. COc1cc2c(cc1OC)C(Cc1ccc(OS(=O)(=O)c3ccc4ccccc4c3)c(OC)c1)N(C)CC2 (stereo not given)  362.1
19. COc1cc2c(cc1OC)C(Cc1ccc(OC)c(OS(=O)(=O)c3ccc(C(F)(F)F)cc3)c1)N(C)CC2 (stereo not given)  371.9
20. COc1cc2c(cc1OC)C(Cc1ccc(OC)c(OCc3ccc(Cl)cc3Cl)c1)N(C)CC2 (stereo not given)  412.3

Tested on: Eca-109/VCR
Assay: Induction of apoptosis in human Eca-109/VCR cells assessed as early apoptotic cells at 2.5 uM incubated for 60 hrs by Annexin V-FITC/PI staining based flow cytometric analysis (reference value: 1.66%)
Type: functional
Details: not given

For `COc1ccc(CCN(C)CCCC(C#N)(c2ccc(OC)c(OC)c2)C(C)C)cc1OC` (stereo not given) [VERAPAMIL], the Activity was 1.19%.

Tested on: Eca-109/VCR
Assay: Induction of apoptosis in human Eca-109/VCR cells assessed as late apoptotic cells at 2.5 uM incubated for 60 hrs by Annexin V-FITC/PI staining based flow cytometric analysis (reference value: 0.70%)
Type: functional
Details: not given

In the case of `COc1ccc(CCN(C)CCCC(C#N)(c2ccc(OC)c(OC)c2)C(C)C)cc1OC` (stereo not given) [VERAPAMIL], the Activity is reported as 0.55%.

Tested on: Eca-109/VCR
Assay: Induction of apoptosis in human Eca-109/VCR cells assessed as necrotic cells at 2.5 uM incubated for 60 hrs by Annexin V-FITC/PI staining based flow cytometric analysis (reference value: 0.22%)
Type: functional
Details: not given

Work on `COc1ccc(CCN(C)CCCC(C#N)(c2ccc(OC)c(OC)c2)C(C)C)cc1OC` (stereo not given) [VERAPAMIL] yielded an Activity of 0.2%.

Tested on: Eca-109/VCR
Assay: Induction of apoptosis in human Eca-109/VCR cells assessed as viable cells at 5 uM incubated for 60 hrs by Annexin V-FITC/PI staining based flow cytometric analysis (reference value: 97.4%)
Type: functional
Details: read-out: Activity

`COc1ccc(CCN(C)CCCC(C#N)(c2ccc(OC)c(OC)c2)C(C)C)cc1OC` (stereo not given) [VERAPAMIL] showed a viability at 5 µM of 96.2%.

Tested on: Eca-109/VCR
Assay: Induction of apoptosis in human Eca-109/VCR cells assessed as early apoptotic cells at 5 uM incubated for 60 hrs by Annexin V-FITC/PI staining based flow cytometric analysis (reference value: 1.66%)
Type: functional
Details: not given

For `COc1ccc(CCN(C)CCCC(C#N)(c2ccc(OC)c(OC)c2)C(C)C)cc1OC` (stereo not given) [VERAPAMIL], the Activity was 1.12%.

Tested on: Eca-109/VCR
Assay: Induction of apoptosis in human Eca-109/VCR cells assessed as late apoptotic cells at 5 uM incubated for 60 hrs by Annexin V-FITC/PI staining based flow cytometric analysis (reference value: 0.70%)
Type: functional
Details: not given

Molecule `COc1ccc(CCN(C)CCCC(C#N)(c2ccc(OC)c(OC)c2)C(C)C)cc1OC` (stereo not given) [VERAPAMIL] has an Activity of 0.72%.

Tested on: Eca-109/VCR
Assay: Induction of apoptosis in human Eca-109/VCR cells assessed as necrotic cells at 5 uM incubated for 60 hrs by Annexin V-FITC/PI staining based flow cytometric analysis (reference value: 0.22%)
Type: functional
Details: not given

Work on `COc1ccc(CCN(C)CCCC(C#N)(c2ccc(OC)c(OC)c2)C(C)C)cc1OC` (stereo not given) [VERAPAMIL] yielded an Activity of 0.13%.

Tested on: ECa-109 cell line
Assay: Cytotoxicity against human Eca-109 cells incubated for 48 hrs by CCK-8 assay
Type: functional, cell-based
Details: ECa-109, 48 h

With `COc1cccc2c1C(=O)c1c(O)c3c(c(O)c1C2=O)C[C@@](O)(C(=O)CO)C[C@@H]3O[C@H]1C[C@H](N)[C@H](O)[C@H](C)O1` [DOXORUBICIN] the IC50 was 2070 nM.

Tested on: Eca-109/VCR
Assay: Induction of apoptosis in human Eca-109/VCR cells assessed as viable cells at 2.5 uM incubated for 60 hrs in presence of vincristine by Annexin V-FITC/PI staining based flow cytometric analysis (reference value: 97.3%)
Type: functional
Details: read-out: Activity

With `COc1ccc(CCN(C)CCCC(C#N)(c2ccc(OC)c(OC)c2)C(C)C)cc1OC` (stereo not given) [VERAPAMIL] the viability at 2.5 µM was 96%.

Tested on: Eca-109/VCR
Assay: Induction of apoptosis in human Eca-109/VCR cells assessed as viable cells at 5 uM incubated for 60 hrs in presence of vincristine by Annexin V-FITC/PI staining based flow cytometric analysis (reference value: 97.3%)
Type: functional
Details: read-out: Activity

`COc1ccc(CCN(C)CCCC(C#N)(c2ccc(OC)c(OC)c2)C(C)C)cc1OC` (stereo not given) [VERAPAMIL] gave a viability at 5 µM of 75.4%.

Tested on: Eca-109/VCR
Assay: Induction of apoptosis in human Eca-109/VCR cells assessed as late apoptotic cells at 2.5 uM incubated for 60 hrs in presence of vincristine by Annexin V-FITC/PI staining based flow cytometric analysis (reference value: 0.56%)
Type: functional
Details: not given

With `COc1ccc(CCN(C)CCCC(C#N)(c2ccc(OC)c(OC)c2)C(C)C)cc1OC` (stereo not given) [VERAPAMIL] the Activity was 0.85%.

Tested on: Eca-109/VCR
Assay: Induction of apoptosis in human Eca-109/VCR cells assessed as late apoptotic cells at 5 uM incubated for 60 hrs in presence of vincristine by Annexin V-FITC/PI staining based flow cytometric analysis (reference value: 0.56%)
Type: functional
Details: not given

In the case of `COc1ccc(CCN(C)CCCC(C#N)(c2ccc(OC)c(OC)c2)C(C)C)cc1OC` (stereo not given) [VERAPAMIL], the Activity is reported as 5.95%.

Tested on: Eca-109/VCR
Assay: Induction of apoptosis in human Eca-109/VCR cells assessed as necrotic cells at 2.5 uM incubated for 60 hrs in presence of vincristine by Annexin V-FITC/PI staining based flow cytometric analysis (reference value: 0.10%)
Type: functional
Details: not given

Work on `COc1ccc(CCN(C)CCCC(C#N)(c2ccc(OC)c(OC)c2)C(C)C)cc1OC` (stereo not given) [VERAPAMIL] yielded an Activity of 0.17%.

Tested on: Eca-109/VCR
Assay: Induction of apoptosis in human Eca-109/VCR cells assessed as necrotic cells at 5 uM incubated for 60 hrs in presence of vincristine by Annexin V-FITC/PI staining based flow cytometric analysis (reference value: 0.10%)
Type: functional
Details: not given

`COc1ccc(CCN(C)CCCC(C#N)(c2ccc(OC)c(OC)c2)C(C)C)cc1OC` (stereo not given) [VERAPAMIL] showed an Activity of 0.34%.
